{"source": "paper PMC9557946", "about": "“Intermittent MEK inhibition for the treatment of metastatic uveal melanoma” (Frontiers in Oncology, 2022)", "key": {"[1]": {"system": "metastatic uveal melanoma", "test": "Phase Ib trial of intermittent selumetinib: clinical efficacy (RECIST v1.1, PFS, OS)", "type": "in vivo, human", "description": "This was a multi-center, open-label, phase Ib study conducted at Columbia University Irving Medical Center (New York, NY), University of Texas MD Anderson Cancer Center (Houston, TX), and Memorial Sloan Kettering Cancer Center (New York, NY). The primary objective of this study was to determine the maximum tolerated dose (MTD) of selumetinib administered using an intermittent dosing schedule in patients with metastatic UM. […] Exploratory objectives included pharmacodynamic (PD) assessment of target inhibition of the MEK pathway.\nDescriptive statistics were used to report baseline characteristics of the study population. The observed rate and estimated rate of DLT were reported for each dose level along with the 90% probability interval. The number and percentage of patients with adverse events were summarized taking the highest grade and reported by grade for AEs that were at least possibly related to treatment. AEs with at prevalence of least 10% were reported separately. The overall response rate (ORR) was defined as a confirmed complete response (CR) or partial response (PR) according to RECIST 1.1 criteria ([18]) and reported by dose level. Disease control rate (DCR) was defined as the percentage of patients with a confirmed CR, PR or stable disease. PFS was measured from date of enrollment until the date of progression or death, whichever occurred first. OS was defined as the time from the date of registration to the date of death by any cause.\nImaging was obtained at baseline, at 8 weeks after start of study treatment, and then every 8 weeks thereafter. Imaging of the chest, abdomen, and pelvis was required at each time point, with contrast enhanced MRI of the liver performed whenever possible. Response was assessed using RECIST v.1.1 criteria by investigator assessment. Criteria for removal from study included radiographic or clinical disease progression, or unacceptable toxicity."}, "pERK": {"system": "pERK", "test": "Pharmacodynamic analysis of serial tumor biopsies (immunoblot, densitometry)", "type": "in vivo, human", "protocol": "Serial tumor biopsies were collected from patients at baseline, on day 3, and between days 11 and 14. Flash-frozen specimens were lysed in RIPA lysis buffer. Equal amounts of protein were loaded on 4-20% PAGE gels (Invitrogen) and analyzed by immunoblotting using antibodies for pERK, ERK, cyclin D1 and α-tubulin (Cell Signaling). Signals from secondary antibodies were detected using ECL (Pierce) and autoradiography films. Densitometry analysis of each band was performed using Photoshop C6 and normalized to tubulin expression."}, "[2]": {"system": "metastatic uveal melanoma", "conditions": "ref [10], cited from earlier work"}, "clinical": {"test": "clinical", "conditions": "human, in vivo", "quoted_text": "Non-compartmental analyses were performed on the data for day 1, 2, 15 and 17 using Winnonlin software (Phoenix Winnonlin 8.3.1.5014, Certara L.P., Princeton, NJ). […] Data were summarized per dose level and per occasion. Dose-exposure relationships were explored by plotting dose versus the various parameters. Accumulation was investigated using the AUC assessed at various days."}, "[3]": {"conditions": "cited from earlier work"}, "[4]": {"conditions": "All Levels, investigator assessed RECIST v1.1"}, "[5]": {"conditions": "Level 1 (100 mg BID), investigator assessed RECIST v1.1"}, "[6]": {"conditions": "Level 2 (125 mg BID), investigator assessed RECIST v1.1"}, "[7]": {"conditions": "Level 3 (150 mg BID), investigator assessed RECIST v1.1"}, "[8]": {"conditions": "Level 4 (175 mg BID), investigator assessed RECIST v1.1"}}, "note": "Read-outs that look alike come from different tables or passages of the source.", "data": [{"smiles": "Cn1cnc2c(F)c(Nc3ccc(Br)cc3Cl)c(C(=O)NOCCO)cc21", "note": "[selumetinib]", "values": [{"measurement": "median PFS", "setting": "[1]; 125mg twice daily cohort", "result": 1.7, "unit": "months"}, {"measurement": "Complete Response (CR)", "setting": "[1]; [4]", "result": 0}, {"measurement": "Partial Response (PR)", "setting": "[1]; [4]", "result": 0}, {"measurement": "Median duration of Stable Disease", "setting": "[1]; Level 1 (100 mg BID)", "result": 7.1, "unit": "months"}, {"measurement": "Complete Response (CR)", "setting": "[1]; [5]", "result": 0}, {"measurement": "Overall Response Rate (ORR)", "setting": "[1]; [5]", "result": 0}, {"measurement": "Partial Response (PR)", "setting": "[1]; [5]", "result": 0}, {"measurement": "Median Time to Progression (range)", "setting": "[1]; Level 1 (100 mg BID), range 1.2-10.8", "result": "3.4 months (1.2-10.8)"}, {"measurement": "Median duration of Stable Disease", "setting": "[1]; Level 2 (125 mg BID)", "result": 4.1, "unit": "months"}, {"measurement": "Complete Response (CR)", "setting": "[1]; [6]", "result": 0}, {"measurement": "Overall Response Rate (ORR)", "setting": "[1]; [6]", "result": 0}, {"measurement": "Partial Response (PR)", "setting": "[1]; [6]", "result": 0}, {"measurement": "Median Time to Progression (range)", "setting": "[1]; Level 2 (125 mg BID), range 0.9-5.5", "result": "1.7 months (0.9-5.5)"}, {"measurement": "Median duration of Stable Disease", "setting": "[1]; Level 3 (150 mg BID)", "result": 4.9, "unit": "months"}, {"measurement": "Complete Response (CR)", "setting": "[1]; [7]", "result": 0}, {"measurement": "Overall Response Rate (ORR)", "setting": "[1]; [7]", "result": 0}, {"measurement": "Partial Response (PR)", "setting": "[1]; [7]", "result": 0}, {"measurement": "Median Time to Progression (range)", "setting": "[1]; Level 3 (150 mg BID), range 0.9-6.2", "result": "3.7 months (0.9-6.2)"}, {"measurement": "Complete Response (CR)", "setting": "[1]; [8]", "result": 0}, {"measurement": "Overall Response Rate (ORR)", "setting": "[1]; [8]", "result": 0}, {"measurement": "Partial Response (PR)", "setting": "[1]; [8]", "result": 0}, {"measurement": "Progressive Disease (PD), patients/total (%)", "setting": "[1]; [8]", "result": 0}, {"measurement": "ORR", "setting": "[1]; all 29 patients, RECIST v1.1", "result": 0, "unit": "%"}, {"measurement": "best response of stable disease, percent of patients", "setting": "[1]; at 8 weeks from treatment initiation, n=11 of 29", "result": 38, "unit": "%"}, {"measurement": "median progression-free response by cohort", "setting": "[1]; range across dose cohorts", "result": "1.7-3.7 months"}, {"measurement": "median PFS", "setting": "[1]; total population (29 patients), 95% CI 1.7, 4.5", "result": 1.8, "unit": "months"}, {"measurement": "median OS", "setting": "[1]; total population (29 patients), 95% CI 5.3, 11.5", "result": 7.1, "unit": "months"}, {"measurement": "mean reduction in pERK expression", "setting": "pERK; day 3 of first cycle (on treatment) vs baseline, n=9", "result": 41.3, "unit": "%"}, {"measurement": "mean increase in pERK expression from day 3", "setting": "pERK; day 11-14, off-treatment window", "result": 69.3, "unit": "%"}, {"measurement": "cases with at least partial pERK recovery", "setting": "pERK; day 11-14 off treatment, of 9 patients", "result": 7, "unit": "cases"}, {"measurement": "median PFS", "setting": "[2]; SELPAC, selumetinib 75 mg BID", "result": 3.4, "unit": "months"}, {"measurement": "ORR", "setting": "[2]; SelPac, 77 patients", "result": 4, "unit": "%"}, {"measurement": "median OS", "setting": "[2]; SelPac, 77 patients", "result": 10, "unit": "months"}, {"measurement": "half-life", "setting": "clinical", "result": 4.3, "unit": "h"}, {"measurement": "Tmax", "setting": "clinical; po", "result": "~1.7", "unit": "h"}, {"measurement": "continuous dose MTD", "setting": "[3]; continuous dosing schedule", "result": 75, "unit": "mg BID"}, {"measurement": "mean half-life", "setting": "[3]; prior knowledge, no reference given", "result": "5 to 8", "unit": "h"}]}]}
